One series deals with T1, neutrophil elastase (Homo sapiens, UniProt P08246).
T1 sequence (P08246 30-247 limits assumed): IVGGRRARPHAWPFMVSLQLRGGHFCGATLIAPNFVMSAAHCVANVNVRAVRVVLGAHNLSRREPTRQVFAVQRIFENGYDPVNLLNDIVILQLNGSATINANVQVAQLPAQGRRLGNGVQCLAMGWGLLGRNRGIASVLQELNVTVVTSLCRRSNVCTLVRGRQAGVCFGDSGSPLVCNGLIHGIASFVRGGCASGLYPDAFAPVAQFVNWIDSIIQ
Nature of the series: Neutrophil elastase inhibitory activity in human plasma. The format is biochemical. The arrangement: The stimulated blood is centrifuged to generate the neutrophil elastase enriched plasma; from tissue; host or cells: plasma from zymosan-stimulated citrated whole blood of healthy human donors. Conditions: neutrophil elastase enriched human plasma (zymosan-stimulated blood), substrate MeOSuc-Ala-Ala-Pro-Val-AMC. How it is done:
Assay for the Determination of Neutrophil Elastase Inhibitory Activity in Human Plasma
Citrated blood from human healthy donors is mixed with zymosan suspension and incubated at room temperature. This leads to the stimulation of neutrophils and the release of neutrophil elastase into the plasma. The stimulated blood is centrifuged to generate the neutrophil elastase enriched plasma.
Preparation of Zymosan Working Solution:
• single 45 ml blood sample is taken into a 50 ml tube containing citrate (3.13%, 5 mL) and the tube is gently inverted 4 times. • Immediately after blood sampling, zymosan working solution (5 mL) is added. • After the addition of zymosan working solution, the tubes are capped, mixed gently and incubated at 22° C. for 15 min on a shaker at 20 rpm. • Make 10 ml aliquots after the incubation time. • Centrifuge the 15 ml tubes at 800 g for […] at 4° C. in a Jouan centrifuge. • Harvest the plasma and make 1-5 ml aliquots. • Store the plasma at −80° C.
Various concentrations of the neutrophil elastase inhibitor are incubated with plasma. Subsequently, the enzyme activity is measured using the fluorogenic substrate MeOSuc-Ala-Ala-Pro-Val-AMC (Bachem Cat. No. 1-1270, substrate concentration: 250 μM, pH 7.5, 25 mM TRIS buffer, 250 mM NaCl) in analogous fashion as described for the human neutrophil assay. A dose response curve is generated to calculate the EC50 of the inhibitor. The analysis of the data is performed by the calculation of the percentage of fluorescence in the presence of the test compound compared to the fluorescence of the vehicle control after subtracting the background fluorescence: An inhibitor of the neutrophil elastase enzyme will give values between 100% control (no inhibition) and 0% control (complete inhibition). The human plasma shift of selected compounds can be calculated using the following equation: Human plasma shift=(EC50 in human plasma assay)/(IC50 in human neutrophil elastase assay) The EC50 values of selected compounds in the human plasma assay described above are listed in Table 14.

Series [1] in a line: Metabolic stability with human liver microsomes. The format is in vitro ADME. Particulars: pooled human liver microsomes, 37° C., 1 mg/ml protein, NADPH; for half-life at 1 nM: pH 7.6, read-out: t1/2 INVITRO. As to the method: Assay for the Determination of Metabolic Stability with Human Liver Microsomes
The metabolic degradation of the test compound is assayed at 37° C. with pooled human liver microsomes. The final incubation volume of […] per time point contains TRIS buffer pH 7.6 (0.1 M), magnesium chloride (5 mM), microsomal protein (1 mg/ml) and the test compound at a final concentration of […]. Following a short preincubation period at 37° C., the reactions are initiated by addition of beta-nicotinamide adenine dinucleotide phosphate, reduced form (NADPH, 1 mM) and terminated by transfering an aliquot into acetonitrile after different time points. Additionally, the NADPH-independent degradation is monitored in incubations without NADPH, terminated at the last time point. The rol remaining test compound after NADPH independent incubation is reflected by the parameter c(control) (metabolic stability). The quenched incubations are pelleted by centrifugation (10′000 g, 5 min) An aliquot of the supernatant is assayed by LC-MS/MS for the amount of parent compound.
The half-life (t1/2 INVITRO) is determined by the slope of the semilogarithmic plot of the concentration-time profile. The intrinsic clearance (CL_[…]) is calculated by considering the amount of protein in the incubation: CL_[…][μl/min/mg protein]=(ln 2/(half-life [min]*protein content [mg/ml]))*1′000.
The half-life (t1/2 INVITRO) values of selected compounds in the metabolic stability assay described above are listed in Table 15.
(In general: Liver microsomes are a subcellular fraction often used to study metabolism.)

Series [2] can be described thus: Metabolic stability with human hepatocytes. In kind it is in vitro ADME. Particulars: human hepatocyte suspension, 1 μM, scaled with well stirred model. As to the method:
Assay for the Determination of Metabolic Stability with Human Hepatocytes
The metabolic degradation of the test compound is assayed in a human hepatocyte suspension. Human hepatocytes (typically cryopreserved) are incubated in an appropriate buffer system (e.g. Dulbecco's modified eagle medium plus 3.5 μg glucagon/500 mL, 2.5 mg insulin/500 mL and 3.75 mg/500 mL hydrocortison) containing 5% species serum. Following a (typically) […] preincubation in an incubator (37° C., 10% CO2), 5 μl of test compound solution (80 μM; from 2 mM stock solution in DMSO diluted 1:25 with medium) are added into 395 μl hepatocyte suspension (cell density in the range 0.25-5*10^6 cells/mL, typically 1*10^6 cells/mL; final concentration of test compound 1 μM, final DMSO concentration […]). The cells are incubated for six hours (incubator, orbital shaker) and samples (25 μl) are taken at 0, 0.5, 1, 2, 4 and 6 hours. Samples are transferred into acetonitrile and pelleted by centrifugation (5 min). The supernatant is transferred to a new 96-deepwell plate, evaporated under nitrogen and resuspended. The decline of parent compound is analyzed by LC-MS/MS.
The intrinsic clearance CL_[…] is calculated as follows: CL_[…]=Dose/AUC=(C0/CD)/(AUD+clast/k)*1′000/60 (C0: initial concentration in the incubation [μM], CD: cell density of vital cells [10^6 cells/mL], AUD: area under the data [μM*h], clast: concentration of last data point [μM], k: slope of the regression line for parent decline [h^−1])
The calculated in vitro hepatic intrinsic clearance can be scaled up to the intrinsic in vivo hepatic clearance and used to predict hepatic in vivo blood clearance (CL) by the use of a is liver model (well stirred model): CL_[…]_INVIVO [ml/min/kg]=(CL_[…] [μL/min/10^6 cells]* hepatocellularity[10^6 cells/g liver]*liver factor[g/kg bodyweight])/1′000 CL[ml/min/kg]=CL_[…]_INVIVO [ml/min/kg]*hepatic blood flow [ml/min/kg]/(CL_[…]_INVIVO [ml/min/kg]+hepatic blood flow [ml/min/kg]) Qh[%]=CL[ml/min/kg]/hepatic blood flow[ml/min/kg]) (Hepatocellularity, human: 120*10^6 cells/g liver; lver factor, human: 25.7 g/kg bodyweight; blood flow, human: 21 ml/(min*kg))
The predicted human hepatic in vivo blood clearance (CL) of selected compounds in the metabolic stability assay described above are listed in Table 16.

What is called EC50 is the concentration giving half of the maximal effect. `N#Cc1ccc(C2C3=C(CCCC3=O)N(c3cccc(C(F)(F)F)c3)C(=O)N2C(=O)NCCO)cc1` (centres unmarked) [Example 39.3] showed an EC50 at neutrophil elastase of 6 nM. Besides, in series [1], the half-life at 1 nM is greater than 2.17 h.
As for `CS(=O)(=O)CCNC(=O)N1C(=O)N(c2cccc(C(F)(F)F)c2)C2=C(C(=O)CCC2)C1c1ccc(C#N)cc1` (centres unmarked) [Example 39.19], the “CL (predicted human hepatic in vivo blood clearance)” value in series [2] is 0 mL/min/kg. Also, at neutrophil elastase, the EC50 came to 9 nM. In addition, in series [1], the half-life at 1 nM is greater than 2.17 h.
Regarding `CC(C)NC(=O)N1C(=O)N(c2cccc(C(F)(F)F)c2)C2=C(C(=O)CCC2)[C@H]1c1ccc(C#N)cc1S(C)(=O)=O` [Example 75.3], in series [2], the “CL (predicted human hepatic in vivo blood clearance)” value is 0 mL/min/kg. Further, a half-maximal effect at neutrophil elastase (EC50) was put at 1 nM. The “t1/2 INVITRO” value in series [1] was greater than 2.17 h.
On the same counts, the results for `CS(=O)(=O)c1cc(C#N)ccc1[C@@H]1C2=C(CCCC2=O)N(c2cccc(C(F)(F)F)c2)C(=O)N1C(=O)NCC(F)F` [Example 75.7] are 0 mL/min/kg, 1 nM and greater than 2.17 h.

Source of the values: patent publication US9115093B2, “Substituted bicyclic dihydropyrimidinones and their use as inhibitors of neutrophil elastase activity” (Boehringer Ingelheim International GmbH, priority 2013, dated 2015).
